Assay results as given in PMC2990756, “Quantitative High-Throughput Screening Identifies 8-Hydroxyquinolines as Cell-Active Histone Demethylase Inhibitors” (PLoS ONE, 2010).
Where two headings read alike, the source gives them in different places.

Columns and labels:
Assay type in all cases: biochemical
[1] = target: T1, JMJD2E (Homo sapiens, UniProt B2RXH2); assay: JMJD2E FDH-coupled assay under low and high iron conditions (iron chelation profile); parameters: The catalytic domain of human JMJD2E (residues 1–337); His6 (N); made in house; host or cells: E. coli; details: Table S1; for IC50: unit not in table, from Figure 2
T1 sequence (B2RXH2 1-337): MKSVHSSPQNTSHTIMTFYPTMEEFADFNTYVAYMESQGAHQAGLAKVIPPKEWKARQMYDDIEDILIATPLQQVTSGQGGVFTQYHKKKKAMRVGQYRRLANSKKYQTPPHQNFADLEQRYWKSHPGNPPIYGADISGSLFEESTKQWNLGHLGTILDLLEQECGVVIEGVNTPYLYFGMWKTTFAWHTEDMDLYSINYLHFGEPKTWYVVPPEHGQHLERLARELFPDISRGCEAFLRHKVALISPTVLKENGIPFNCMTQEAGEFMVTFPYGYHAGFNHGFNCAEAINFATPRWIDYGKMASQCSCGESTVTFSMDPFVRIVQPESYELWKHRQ
Method: The prioritized compounds were also evaluated in the screening assay using two different ferrous ion concentrations (termed high iron and low iron, respectively), in order to assess their propensity for iron chelation.
The ratio of IC50 values under high iron to low iron was calculated for each compound.

[2] = target: T2, JMJD2E (KDM4E) (Homo sapiens, UniProt B2RXH2); assay: qHTS fluorescence FDH-coupled JMJD2E demethylase assay; details: Table S1; unit not in table, from Figure 2; read-out: qHTS Data: jmjd2e IC50
T2 construct: The catalytic domain of human JMJD2E (residues 1–337); His6 (N); made in house; host or cells: E. coli
T2 sequence (B2RXH2 1-337): T1 sequence (B2RXH2 1-337)

[3] = target: T3, formaldehyde dehydrogenase (FDH) (Pseudomonas putida, UniProt P46154); assay: FDH coupling enzyme counterscreen; details: Table S1, FDH counterscreen; for IC50: unit not in table, from Figure 2, read-out: qHTS Data: jmjd2e fdh IC50
T3 construct: purchased Sigma-Aldrich
From the text: Dimethylsulfoxide certified ACS grade (DMSO) was from Fisher, Inc. HEPES buffer was obtained from Gibco. […] Black solid-bottom 1,536-well assay plates were from Greiner Bio-One (Monroe, NC).

[4] = low iron 2.5 µM FAS, read-out: qHTS Data: jmjd2e fas2.5um IC50
[5] = high iron, head says 20 µM FAS, read-out: qHTS Data: jmjd2e fas20um IC50

T3 sequence (P46154 whole entry): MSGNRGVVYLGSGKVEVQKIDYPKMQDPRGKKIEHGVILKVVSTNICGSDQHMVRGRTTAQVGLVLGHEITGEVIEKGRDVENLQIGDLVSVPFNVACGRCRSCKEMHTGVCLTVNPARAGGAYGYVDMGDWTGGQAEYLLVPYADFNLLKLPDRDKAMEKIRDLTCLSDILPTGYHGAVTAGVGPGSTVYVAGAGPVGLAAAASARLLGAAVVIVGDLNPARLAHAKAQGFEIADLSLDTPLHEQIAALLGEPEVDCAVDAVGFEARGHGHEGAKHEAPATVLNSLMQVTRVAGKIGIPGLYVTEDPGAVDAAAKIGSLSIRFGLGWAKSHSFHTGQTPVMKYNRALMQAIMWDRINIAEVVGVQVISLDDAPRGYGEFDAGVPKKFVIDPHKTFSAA

Structure (SMILES)	qHTS Data: jmjd2e fas20um CurveClass ([1]; high iron)	IC50 [1, 4]	IC50 [2]	qHTS Data: jmjd2e fdh CurveClass [3]	IC50 [1, 5]	IC50 [3]	qHTS Data: jmjd2e fas2.5um Curve comment ([1]; low iron 2.5 µM FAS)
O=c1cnnc(N/N=C/c2ccccn2)[nH]1 [compound 26726276]	Inactive	6.31 µM	3.55 µM	Inactive			
COC(=O)c1ccc(=O)c2nc3/c(=C/O)c(O)cc(=O)c3[nH]c12 [compound 26732584]	Inconclusive	2.24 µM	8.91 µM	Inactive			
O=C(O)c1cc(O)c(O)c(O)c1 [compound 26747307]		0.13 µM	0.35 µM	Poor quality curve	17.8 µM	31.6 µM	
CC1=CC(=O)c2c(O)cccc2C1=O [compound 26747815]		2.24 µM	8.91 µM	Poor quality curve	12.6 µM	17.8 µM	
Cl.NCCc1cc(O)c(O)cc1O [compound 26748180]		2.51 µM	6.31 µM	Poor quality curve	7.94 µM		
CN(C)C1C(=O)C(C(N)=O)=C(O)[C@@]2(O)C(=O)C3=C(O)c4c(O)cccc4[C@@](C)(O)C3CC12.Cl (stereo partly drawn) [compound 26748266]		15.8 µM	2.51 µM	Poor quality curve	1.78 µM	15.8 µM	
C=C1c2cccc(O)c2C(O)=C2C(=O)[C@]3(O)C(O)=C(C(N)=O)C(=O)C(N(C)C)C3C(O)C12.Cl (stereo partly drawn) [compound 26748477]	Poor quality curve	12.6 µM	8.91 µM	Inactive	2.51 µM		
O=C(OCC1OC(OC(=O)c2cc(O)c(O)c(OC(=O)c3cc(O)c(O)c(O)c3)c2)[C@@H](OC(=O)c2cc(O)c(O)c(OC(=O)c3cc(O)c(O)c(O)c3)c2)C(OC(=O)c2cc(O)c(O)c(OC(=O)c3cc(O)c(O)c(O)c3)c2)C1OC(=O)c1cc(O)c(O)c(OC(=O)c2cc(O)c(O)c(O)c2)c1)c1cc(O)c(O)c(OC(=O)c2cc(O)c(O)c(O)c2)c1 (stereo partly drawn) [compound 26748902]		0.16 µM	0.28 µM		15.8 µM	7.94 µM	
CCc1ccc2c(O)c3c(cc2c1C(=O)OC)C(=O)c1c(O)ccc(O)c1C3=O [compound 26749155]		3.98 µM	2.82 µM	Poor quality curve	11.2 µM	3.16 µM	
O=C1C=CC(=O)c2c(O)cccc21 [compound 26749198]		5.01 µM	7.08 µM	Inactive	14.1 µM		
O=C1c2ccc(O)c(O)c2C(=O)c2c(O)ccc(O)c21 [compound 26749241]		2.51 µM	3.55 µM	Inactive	15.8 µM		
Oc1cc2c(cc1O)C1c3ccc(O)c(O)c3OCC1(O)C2 (stereo not drawn) [compound 26749470]	Poor quality curve	1.58 µM	0.71 µM	Inactive	14.1 µM		
O=c1c(-c2cc(O)c(O)c(O)c2)coc2cc(O)c(O)c(O)c12 [compound 26749510]		1 µM	2.82 µM		14.1 µM	3.98 µM	
CCOc1cccc(C(=O)c2ccc(O)c(O)c2O)c1 [compound 26749554]		4.47 µM	10 µM	Inactive	8.91 µM		
O=C1C=CC2=C3c4cc(O)c(O)cc4CC3(O)COC2=C1O (stereo not drawn) [compound 26749676]	Poor quality curve	2 µM	6.31 µM		17.8 µM	11.2 µM	
O=C(OC1Cc2c(O)cc(O)cc2OC1c1cc(O)c(O)c(O)c1)c1cc(O)c(O)c(O)c1 (stereo not drawn) [compound 26749738]		1.41 µM	2.51 µM	Poor quality curve	7.08 µM	14.1 µM	
COc1cccc(O)c1O [compound 26749778]		4.47 µM	7.94 µM	Inactive	15.8 µM		
COC(=O)c1cc(=O)c(O)c2c(O)c(O)ccc2c1 [compound 26749939]		7.94 µM	8.91 µM	Inactive	22.4 µM		
O=c1c(O)c(-c2ccc(O)c(O)c2)oc2c(O)c(O)cc(O)c12 [compound 26750048]	Inactive	1.41 µM	2.82 µM	Inactive			
CNC[C@H](O)c1ccc(O)c(O)c1 [compound 26754418]		5.01 µM	7.08 µM	Inconclusive	12.6 µM		
Oc1ccccc1O [compound 50105556]	Poor quality curve	10 µM	14.1 µM	Inactive	14.1 µM		
NCC(O)c1ccc(O)c(O)c1.O=C(O)C(O)C(O)C(=O)O (stereo not drawn) [compound 50105780]		4.47 µM	12.6 µM	Inactive	2 µM		
Cl.Nc1ccn([C@@H]2O[C@H](CO)[C@@H](O)[C@@H]2O)c(=O)n1 [compound 50106080]			0.89 µM	Inactive	7.94 µM		Inactive
CNCCc1ccc(O)c(O)c1.Cl [compound 50106160]		4.47 µM	14.1 µM	Poor quality curve	11.2 µM	3.16 µM	
N[C@H](Cc1ccc(O)c(O)c1)C(=O)O [compound 50106235]		12.6 µM	17.8 µM	Inactive	12.6 µM		
CN[C@@H](C)[C@H](O)c1ccccc1.CN[C@@H](C)[C@H](O)c1ccccc1.O=S(=O)(O)O [compound 50106282]	1.2	2.24 µM	3.55 µM	Poor quality curve	7.94 µM	12.6 µM	
Cl.NCCc1ccc(O)c(O)c1 [compound 50106387]		11.2 µM	12.6 µM	Inactive	3.98 µM		
CC(C)C1C(=O)C(C(N)=O)=C(O)[C@@]2(O)C(=O)C3=C(O)c4c(O)ccc(N(C)C)c4C[C@H]3C[C@@H]12.Cl (stereo partly drawn) [compound 50106632]	Poor quality curve	12.6 µM	10 µM	Inactive	12.6 µM		
CN(N=O)c1ccc(O)c(O)c1 [compound 50106719]	Inactive	7.94 µM	10 µM	Poor quality curve		31.6 µM	
Cc1nc(-c2coc3c(O)c(O)ccc3c2=O)cs1 [compound 50110018]		7.08 µM	7.08 µM	Poor quality curve	15.8 µM	17.8 µM	
